“And” between values parts separate entries of the source, which are not always exact repeats. Equal values may be shown once. Toxic doses and inconclusive results are not listed. Rule as the data show it: active = T/C of 150% or more; inactive = T/C below 125%.
Test system: L1210 leukemia ip in BDF1 mice, survival T/C
Assay: NCI In Vivo Anticancer Drug Screen. Data for tumor model L1210 Leukemia (intraperitoneal) in B6D2F1 (BDF1) mice
Settings: endpoint: mean survival time, higher = longer survival
Outline: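 Survival endpoint. Drug-treated group vs vehicle group, expressed as T divided by C. Tumor passaged by transplantation.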

[1] = dose: 100.0 mg/kg/injection, schedule: Q01DX001 (ip), vehicle: carboxymethylcellulose (CMC)
[2] = dose: 200.0 mg/kg/injection, schedule: Q01DX001 (ip), vehicle: carboxymethylcellulose (CMC)
[3] = dose: 50.0 mg/kg/injection, schedule: Q01DX001 (ip), vehicle: saline
[4] = dose: 100.0 mg/kg/injection, schedule: Q01DX001 (ip), vehicle: saline
[5] = dose: 200.0 mg/kg/injection, schedule: Q01DX001 (ip), vehicle: saline
[6] = dose: 400.0 mg/kg/injection, schedule: Q01DX001 (ip), vehicle: saline
[7] = dose: 100.0 mg/kg/injection, schedule: Q01DX009 (ip), vehicle: saline
[8] = dose: 100.0 mg/kg/injection, schedule: Q04DX003 (ip), vehicle: saline with Tween-80
[9] = dose: 200.0 mg/kg/injection, schedule: Q04DX003 (ip), vehicle: saline with Tween-80
[10] = dose: 400.0 mg/kg/injection, schedule: Q04DX003 (ip), vehicle: saline with Tween-80
[11] = dose: 100.0 mg/kg/injection, schedule: Q01DX009 (ip), vehicle: saline with Tween-80
[12] = dose: 200.0 mg/kg/injection, schedule: Q01DX009 (ip), vehicle: saline with Tween-80
[13] = dose: 100.0 mg/kg/injection, schedule: Q01DX009 (ip), vehicle: Klucel (hydroxypropylcellulose) (HPC)
[14] = dose: 100.0 mg/kg/injection, schedule: Q04DX003 (ip), vehicle: Klucel (hydroxypropylcellulose) (HPC)
[15] = dose: 200.0 mg/kg/injection, schedule: Q01DX009 (ip), vehicle: Klucel (hydroxypropylcellulose) (HPC)
[16] = dose: 200.0 mg/kg/injection, schedule: Q04DX003 (ip), vehicle: Klucel (hydroxypropylcellulose) (HPC)
[17] = dose: 400.0 mg/kg/injection, schedule: Q01DX009 (ip), vehicle: saline with Tween-80
[18] = dose: 400.0 mg/kg/injection, schedule: Q01DX009 (ip), vehicle: Klucel (hydroxypropylcellulose) (HPC)

Measured: T/C

CCOC(=O)CSc1c([N+](=O)[O-])c(C)nn1C
inactive: dose: 25.0 mg/kg/injection, schedule: Q01DX009 (ip), vehicle: water 101 % of control | dose: 50.0 mg/kg/injection, schedule: Q01DX009 (ip), vehicle: water 97 % of control | dose: 100.0 mg/kg/injection, schedule: Q01DX009 (ip), vehicle: water 105 % of control | dose: 200.0 mg/kg/injection, schedule: Q01DX009 (ip), vehicle: water 97 % of control | dose: 400.0 mg/kg/injection, schedule: Q01DX009 (ip), vehicle: water 92 % of control

O=C(COc1cccc(Cl)c1)NCc1ccc(NC(=O)c2cccc(S(=O)(=O)F)c2)cc1
inactive: dose: 25.0 mg/kg/injection, schedule: Q04DX002 (ip), vehicle: Klucel (hydroxypropylcellulose) (HPC) 111 % of control | dose: 50.0 mg/kg/injection, schedule: Q04DX002 (ip), vehicle: Klucel (hydroxypropylcellulose) (HPC) 107 % of control | dose: 100.0 mg/kg/injection, schedule: Q04DX002 (ip), vehicle: Klucel (hydroxypropylcellulose) (HPC) 100 % of control

Oc1ccc2ccc(Cl)cc2c1
inactive: [1] 95 % of control | [2] 90 % of control | dose: 400.0 mg/kg/injection, schedule: Q01DX001 (ip), vehicle: carboxymethylcellulose (CMC) 95 % of control

c1ccc2c(OCCN3CC3)nccc2c1
inactive: [1] 103 % of control | [2] 113 % of control

CCOC(=O)c1[nH]c2c(OCC)nc(OCC)nc2c1Br
inactive: [3] 106 % of control | [4] 112 % of control | [5] 104 % of control | [6] 95 % of control

NNC(=O)c1cccnc1
inactive: dose: 12.5 mg/kg/injection, schedule: Q01DX009 (ip), vehicle: saline 94 % of control | dose: 25.0 mg/kg/injection, schedule: Q01DX001 (ip), vehicle: saline 100 % of control | dose: 25.0 mg/kg/injection, schedule: Q01DX009 (ip), vehicle: saline 104 % of control | [3] 105 % of control | dose: 50.0 mg/kg/injection, schedule: Q01DX009 (ip), vehicle: saline 98 % of control | [4] 102 % of control and 104 % of control | [7] 105 % of control

N=C(OCCCO)C(=N)OCCCO
inactive: [8] 115 % of control | [9] 102 % of control | [10] 96 % of control

CS(=O)(=O)C(Cl)(Cl)S(C)(=O)=O
inactive: dose: 6.25 mg/kg/injection, schedule: Q01DX009 (ip), vehicle: saline with Tween-80 116 % of control | dose: 12.5 mg/kg/injection, schedule: Q01DX009 (ip), vehicle: saline with Tween-80 102 % of control | dose: 25.0 mg/kg/injection, schedule: Q01DX009 (ip), vehicle: saline with Tween-80 104 % of control

O=C(Nc1cccc(C(F)(F)F)c1)Nc1cccc2c1C(=O)c1ccccc1C2=O
inactive: [11] 88 % of control | [12] 87 % of control

COc1cc([C@@H]2c3cc4c(cc3[C@H](O)[C@H]3COC(=O)[C@H]23)OCO4)cc(OC)c1OC
inactive: dose: 0.14 mg/kg/injection, schedule: Q01DX Z (ip), vehicle: carboxymethylcellulose (CMC) 95 % of control | dose: 0.27 mg/kg/injection, schedule: Q01DX Z (ip), vehicle: carboxymethylcellulose (CMC) 101 % of control | dose: 0.54 mg/kg/injection, schedule: Q01DX Z (ip), vehicle: carboxymethylcellulose (CMC) 108 % of control | dose: 1.08 mg/kg/injection, schedule: Q01DX Z (ip), vehicle: carboxymethylcellulose (CMC) 105 % of control and 120 % of control | dose: 1.62 mg/kg/injection, schedule: Q01DX Z (ip), vehicle: carboxymethylcellulose (CMC) 110 % of control | dose: 2.16 mg/kg/injection, schedule: Q01DX Z (ip), vehicle: carboxymethylcellulose (CMC) 95 % of control | dose: 15.0 mg/kg/injection, schedule: Q01DX001 (ip), vehicle: carboxymethylcellulose (CMC) 117 % of control | dose: 30.0 mg/kg/injection, schedule: Q01DX001 (ip), vehicle: carboxymethylcellulose (CMC) 111 % of control | dose: 60.0 mg/kg/injection, schedule: Q01DX001 (ip), vehicle: carboxymethylcellulose (CMC) 88 % of control

CC(=O)Nc1ccc(N(CCO)CCO)cc1
inactive: dose: 25.6 mg/kg/injection, schedule: Q04DX002 (ip), vehicle: saline with Tween-80 88 % of control | dose: 64.0 mg/kg/injection, schedule: Q04DX002 (ip), vehicle: saline with Tween-80 88 % of control | dose: 160.0 mg/kg/injection, schedule: Q04DX002 (ip), vehicle: saline with Tween-80 88 % of control | dose: 400.0 mg/kg/injection, schedule: Q04DX002 (ip), vehicle: saline with Tween-80 92 % of control

O=C(CC(c1ccccc1)c1c(O)c2ccccc2oc1=O)c1ccccc1 (stereo not given)
inactive: dose: 0.5 mg/kg/injection, schedule: Q01DX009 (ip), vehicle: saline with Tween-80 95 % of control | dose: 1.0 mg/kg/injection, schedule: Q01DX009 (ip), vehicle: saline with Tween-80 97 % of control | dose: 2.0 mg/kg/injection, schedule: Q01DX009 (ip), vehicle: saline with Tween-80 100 % of control | dose: 4.0 mg/kg/injection, schedule: Q01DX009 (ip), vehicle: saline with Tween-80 104 % of control | [8] 94 % of control | [9] 91 % of control | [10] 101 % of control

O=CNc1ccc(Br)cc1
inactive: dose: 50.0 mg/kg/injection, schedule: Q04DX003 (ip), vehicle: Klucel (hydroxypropylcellulose) (HPC) 97 % of control | [13] 98 % of control | [14] 97 % of control | [15] 98 % of control | [16] 100 % of control

COC(=O)[CH]([Hg][O]C(C)=O)C(OC)c1ccccc1 (stereo not given)
inactive: dose: 3.0 mg/kg/injection, schedule: Q04DX002 (ip), vehicle: carboxymethylcellulose (CMC) 86 % of control | dose: 6.0 mg/kg/injection, schedule: Q04DX002 (ip), vehicle: carboxymethylcellulose (CMC) 93 % of control | dose: 12.5 mg/kg/injection, schedule: Q04DX002 (ip), vehicle: carboxymethylcellulose (CMC) 94 % of control | dose: 25.0 mg/kg/injection, schedule: Q04DX002 (ip), vehicle: carboxymethylcellulose (CMC) 98 % of control

Nc1nc(N)c(-c2ccc(Cl)cc2)c(COc2cccc(NC(=O)c3ccc(NC(=O)CBr)cc3)c2)n1
inactive: [4] 91 % of control | [5] 91 % of control | [6] 104 % of control

CC1(C#N)CCC2c3ccccc3CCC2C1=O (stereo not given)
inactive: [7] 95 % of control | dose: 100.0 mg/kg/injection, schedule: Q04DX003 (ip), vehicle: saline 100 % of control | dose: 200.0 mg/kg/injection, schedule: Q01DX009 (ip), vehicle: saline 96 % of control | dose: 200.0 mg/kg/injection, schedule: Q04DX003 (ip), vehicle: saline 98 % of control | dose: 400.0 mg/kg/injection, schedule: Q01DX009 (ip), vehicle: saline 106 % of control | dose: 400.0 mg/kg/injection, schedule: Q04DX003 (ip), vehicle: saline 97 % of control

NC(=N\C1=NCCN1)/C(N)=N/C1=NCCN1
inactive: dose: 100.0 mg/kg/injection, schedule: Q04DX002 (ip), vehicle: gum acacia 89 % of control | dose: 200.0 mg/kg/injection, schedule: Q04DX002 (ip), vehicle: gum acacia 100 % of control | dose: 400.0 mg/kg/injection, schedule: Q04DX002 (ip), vehicle: gum acacia 97 % of control

CC(=O)N1C(=O)NC(=O)C1(C)c1ccco1 (stereo not given)
inactive: [11] 103 % of control | [8] 94 % of control | [12] 100 % of control | [9] 97 % of control | [17] 97 % of control | [10] 105 % of control

CSc1ccc(NC(=O)Nc2cccc(C)c2C)cc1
inactive: [13] 92 % of control | [15] 95 % of control | [18] 103 % of control

O=[N+]([O-])c1ccc(S(=O)Cc2ccccc2)c2c1no[n+]2[O-] (stereo not given)
inactive: dose: 25.0 mg/kg/injection, schedule: Q04DX003 (ip), vehicle: saline with Tween-80 100 % of control

Nc1ccc(N)nc1
inactive: [13] 98 % of control | [14] 95 % of control | [15] 98 % of control | [16] 93 % of control | [18] 94 % of control | dose: 400.0 mg/kg/injection, schedule: Q04DX003 (ip), vehicle: Klucel (hydroxypropylcellulose) (HPC) 98 % of control

CC(C)CC(NC(=O)OCc1ccccc1)C(=O)O (stereo not given)
inactive: [11] 87 % of control | [8] 103 % of control | [12] 97 % of control | [9] 101 % of control | [17] 95 % of control | [10] 97 % of control
